From paper PMC7823355, “Pretreatment Effect of Inflammatory Stimuli and Characteristics of Tryptophan Transport on Brain Capillary Endothelial (TR-BBB) and Motor Neuron Like (NSC-34) Cell Lines” (Biomedicines, 2020)
Read-outs that look alike come from different tables or passages of the source.

Columns and labels:
Type in all cases: cell-based
[1] = biological target: T1, LAT1 (L-type amino acid transporter 1) (Rattus norvegicus, UniProt Q63016); experiment: inhibition of [3H]L-tryptophan uptake in TR-BBB cells at […] ([…] of control); conditions: read-out: Relative Uptake / (% of Control)
T1 construct: gene Slc7a5; endogenous LAT1 in TR-BBB cells

[2] = biological target: T2, LAT1 (L-type amino acid transporter 1) (Mus musculus, UniProt Q9Z127); experiment: radiolabelled uptake kinetics (Km) in NSC-34 cells, with LAT1 siRNA knockdown
T2 construct: gene Slc7a5; endogenous LAT1 in NSC-34 (hSOD1^WT) cells
From the text: radiolabelled uptake kinetics (Km) in NSC-34 cells, with LAT1 siRNA knockdown on LAT1 (L-type amino acid transporter 1) | LAT1 mRNA expression and tryptophan uptake results indicated significant depletion effect in LAT1 siRNA-transfected WT and MT cell lines

[3] = biological target: T1, LAT1 (L-type amino acid transporter 1); experiment: competitive inhibition of [3H]L-tryptophan uptake in TR-BBB cells (Lineweaver-Burk)

T1 sequence (Q63016 whole entry): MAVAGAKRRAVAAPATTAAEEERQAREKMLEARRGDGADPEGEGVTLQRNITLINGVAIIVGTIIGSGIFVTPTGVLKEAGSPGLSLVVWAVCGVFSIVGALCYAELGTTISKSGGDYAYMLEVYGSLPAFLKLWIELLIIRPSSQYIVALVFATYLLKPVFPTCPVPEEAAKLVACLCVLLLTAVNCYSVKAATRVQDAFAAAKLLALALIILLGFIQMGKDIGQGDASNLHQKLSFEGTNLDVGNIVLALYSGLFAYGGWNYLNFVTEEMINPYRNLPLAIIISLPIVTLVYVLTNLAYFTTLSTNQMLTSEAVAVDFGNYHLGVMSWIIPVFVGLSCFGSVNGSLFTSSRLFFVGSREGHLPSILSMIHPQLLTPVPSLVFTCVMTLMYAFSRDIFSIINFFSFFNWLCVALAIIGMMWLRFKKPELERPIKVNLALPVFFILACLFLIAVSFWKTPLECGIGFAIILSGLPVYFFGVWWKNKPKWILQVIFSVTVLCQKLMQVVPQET
T2 sequence (Q9Z127 whole entry): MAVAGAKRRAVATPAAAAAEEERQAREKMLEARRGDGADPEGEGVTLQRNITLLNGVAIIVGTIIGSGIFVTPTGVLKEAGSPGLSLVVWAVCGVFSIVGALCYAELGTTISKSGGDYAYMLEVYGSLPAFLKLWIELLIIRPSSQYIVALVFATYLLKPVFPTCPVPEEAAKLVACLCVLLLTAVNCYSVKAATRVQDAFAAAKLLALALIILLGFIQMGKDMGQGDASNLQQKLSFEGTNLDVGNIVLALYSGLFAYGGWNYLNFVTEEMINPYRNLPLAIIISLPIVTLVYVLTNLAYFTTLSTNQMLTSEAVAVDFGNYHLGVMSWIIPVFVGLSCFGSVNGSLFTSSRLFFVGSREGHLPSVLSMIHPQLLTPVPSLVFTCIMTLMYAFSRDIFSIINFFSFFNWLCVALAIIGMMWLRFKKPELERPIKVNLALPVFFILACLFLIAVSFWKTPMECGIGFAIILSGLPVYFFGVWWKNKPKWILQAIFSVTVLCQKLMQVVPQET

## NC1(C(=O)O)CC2CCC1C2 (stereo not shown) [BCH]
[1]
  remaining activity at 2000 µM: 21 ± 1.3%

## N[C@@H](Cc1c[nH]c2ccccc12)C(=O)O [L-tryptophan]
[2]
  Km: 33.1 ± 1.2 µM

## NCC(CC(=O)O)c1ccc(Cl)cc1 (stereo not shown) [Baclofen]
[3]; read-out: Ki
  Ki: 1620 µM

## NCC1(CC(=O)O)CCCCC1 [Gabapentin]
[3]
  Ki: 210 µM
